Data from patent publication US9328083B2, “2-aminated methylene or 2-esterified methylene tanshinone derivatives, and preparation method and application thereof” (HANGZHOU BENSHENG PHARMACEUTICAL CO., LTD., priority 2011, dated 2016).
Converted amounts (≈) assume the structure as drawn.

What was measured:
[1] = tested on: H9 (acute lymphoblastic leukemia, ALL); test: MTT growth inhibition of leukemia cells, 72 h; format: cell-based, human; settings: Homo sapiens, H9, 72 h; for IC50: read-out: IC50; for IC90: read-out: IC90
Procedure, shortened: (§1)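 MTT assay of viable cells following 72 h compound treatment at 37 °C. Cultures contained 6000 cells per well in RPMI-1640 plus 10% fetal bovine serum.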

[2] = tested on: Jurkat (acute lymphoblastic leukemia, ALL); test: MTT growth inhibition of leukemia cells, 72 h; format: cell-based, human; settings: Homo sapiens, 72 h; for IC50: read-out: IC50; for IC90: read-out: IC90
Procedure, shortened: as §1

[3] = tested on: K562/adr (drug-resistant, chronic myeloid leukemia, CML); test: MTT growth inhibition of leukemia cells, 72 h; format: cell-based, human; settings: Homo sapiens, K562/Adr; for IC50: read-out: IC50; for IC90: read-out: IC90
Procedure, shortened: as §1

[4] = tested on: Kasumi-1 (acute myeloid leukemia M2 type, AML-M2); test: MTT growth inhibition of leukemia cells, 72 h; format: cell-based, human; settings: Homo sapiens, Kasumi-1, 72 h; for IC50: read-out: IC50; for IC90: read-out: IC90
Procedure, shortened: as §1

[5] = tested on: NB4 (acute promyelocytic leukemia, AML); test: MTT growth inhibition of leukemia cells, 72 h; format: cell-based, human; settings: Homo sapiens, NB4, 72 h; for IC50: read-out: IC50; for IC90: read-out: IC90
Procedure, shortened: as §1

[6] = tested on: RPMI8226 (multiple myeloma); test: MTT growth inhibition of multiple myeloma cells, 72 h; format: cell-based, human; settings: Homo sapiens, RPMI 8226, 72 h; for IC50: read-out: IC50; for IC90: read-out: IC90
Procedure, shortened: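 RPMI8226 myeloma cells, 6000 per well in 1640 medium with 10% FBS, exposed to compounds at a range of concentrations (diluted from 10 mg/mL DMSO stock) for 72 h at 37° C, 5% CO2. Viable cells then determined by MTT.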

A549 (human lung cancer) = test: MTT growth inhibition of human solid tumor cells, 72 h; format: cell-based; settings: Homo sapiens, A549, 72 h; for IC50: read-out: IC50; for IC90: read-out: IC90
Procedure, shortened: (§2)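 Cells were seeded at 4000 per well in DMEM High Glucose with 10% fetal bovine serum and left 24 h at 37° C, 5% CO2. Tanshinone I derivatives were added at a range of concentrations, diluted in medium from a 10 mg/mL DMSO stock, and viable cell concentration was then determined.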

[7] = tested on: Becap37 (human breast cancer cell); test: as above; format: cell-based; settings: Homo sapiens, Becap-37, 72 h; for IC50: read-out: IC50; for IC90: read-out: IC90
Procedure, shortened: as §2

[8] = tested on: CNE (nasopharyngeal carcinoma cell); test: as above; format: cell-based; settings: Homo sapiens; for IC50: read-out: IC50; for IC90: read-out: IC90
Procedure, shortened: as §2

[9] = tested on: CaES-17 (esophageal cancer cell); test: as above; format: cell-based; settings: Homo sapiens, CaEs17, CaEs-17, 72 h; for IC50: read-out: IC50; for IC90: read-out: IC90
Procedure, shortened: as §2

[10] = tested on: Hela (human cervical cancer cell); test: as above; format: cell-based; settings: Homo sapiens, HeLa, 72 h; for IC50: read-out: IC50; for IC90: read-out: IC90
Procedure, shortened: as §2

[11] = tested on: Hep G2 (human liver cancer cell); test: as above; format: cell-based; settings: Homo sapiens, HepG2, Hep G2, 72 h; for IC50: read-out: IC50; for IC90: read-out: IC90
Procedure, shortened: as §2

[12] = tested on: Hep-2 (laryngeal carcinoma); test: as above; format: cell-based; settings: Homo sapiens, HEp-2, 72 h; for IC50: read-out: IC50; for IC90: read-out: IC90
Procedure, shortened: as §2

MG63 (osteosarcoma) = test: as above; format: cell-based; settings: Homo sapiens, MG-63, 72 h; for IC50: read-out: IC50; for IC90: read-out: IC90
Procedure, shortened: as §2

[13] = tested on: MGC 803 (human gastric cancer cell); test: as above; format: cell-based; settings: Homo sapiens, MGC-803, 72 h; for IC50: read-out: IC50; for IC90: read-out: IC90
Procedure, shortened: as §2

[14] = tested on: PANC-1 (pancreatic cancer); test: as above; format: cell-based; settings: Homo sapiens, PANC-1, 72 h; for IC50: read-out: IC50; for IC90: read-out: IC90
Procedure, shortened: as §2

PC-3 (prostate cancer) = test: as above; format: cell-based; settings: Homo sapiens, PC-3, 72 h; for IC50: read-out: IC50; for IC90: read-out: IC90
Procedure, shortened: as §2

[15] = tested on: RKO (human colon adenocarcinoma cell); test: as above; format: cell-based; settings: Homo sapiens; for IC50: read-out: IC50; for IC90: read-out: IC90
Procedure, shortened: as §2

[16] = tested on: SK-OV-3 (ovarian cancer cell); test: as above; format: cell-based; settings: Homo sapiens, SK-OV-3, 72 h; for IC50: read-out: IC50; for IC90: read-out: IC90
Procedure, shortened: as §2

[17] = tested on: U87 MG (malignant glioma cell); test: as above; format: cell-based; settings: Homo sapiens, U-87 MG, U87-MG, 72 h; for IC50: read-out: IC50; for IC90: read-out: IC90
Procedure, shortened: as §2

IC50 [1] [µg/mL] | IC90 [1] [µg/mL] | IC50 [2] [µg/mL] | IC90 [2] [µg/mL] | IC50 [3] [µg/mL] | IC90 [3] [µg/mL] | IC50 [4] [µg/mL] | IC90 [4] [µg/mL] | IC50 [5] [µg/mL] | IC90 [5] [µg/mL] | IC50 [6] [µg/mL] | IC90 [6] [µg/mL] | IC50 (A549 (human lung cancer)) [µg/mL] | IC90 (A549 (human lung cancer)) [µg/mL] | IC50 [7] [µg/mL] | IC90 [7] [µg/mL] | IC50 [8] [µg/mL] | IC90 [8] [µg/mL] | IC50 [9] [µg/mL] | IC90 [9] [µg/mL] | other results | Structure (SMILES)
0.59 (≈ 1.24 µM) | 1.63 (≈ 3.43 µM) | 0.54 (≈ 1.14 µM) | 1.92 (≈ 4.05 µM) | 0.84 (≈ 1.77 µM) | 2.82 (≈ 5.94 µM) | 0.33 (≈ 0.695 µM) | 0.7 (≈ 1.48 µM) | 0.25 (≈ 0.527 µM) | 0.87 (≈ 1.83 µM) | 0.4 (≈ 0.843 µM) | 0.92 (≈ 1.94 µM) | 1.4 (≈ 2.95 µM) | 4.46 (≈ 9.4 µM) | 0.77 (≈ 1.62 µM) | 1.67 (≈ 3.52 µM) | 1.8 (≈ 3.79 µM) | 3.8 (≈ 8.01 µM) | 0.88 (≈ 1.85 µM) | 1.85 (≈ 3.9 µM) | IC50 [10]: 2.16 µg/mL (≈ 4.55 µM); IC90 [10]: 3.9 µg/mL (≈ 8.22 µM); IC50 [11]: 1.31 µg/mL (≈ 2.76 µM); IC90 [11]: 3.66 µg/mL (≈ 7.71 µM); IC50 [12]: 1.67 µg/mL (≈ 3.52 µM); IC90 [12]: 3.65 µg/mL (≈ 7.69 µM); IC50 (MG63 (osteosarcoma)): 0.82 µg/mL (≈ 1.73 µM); IC90 (MG63 (osteosarcoma)): 2.16 µg/mL (≈ 4.55 µM); IC50 [13]: 0.85 µg/mL (≈ 1.79 µM); IC90 [13]: 3.24 µg/mL (≈ 6.83 µM); IC50 [14]: 0.71 µg/mL (≈ 1.5 µM); IC90 [14]: 5.07 µg/mL (≈ 10.7 µM); IC50 (PC-3 (prostate cancer)): 1.8 µg/mL (≈ 3.79 µM); IC90 (PC-3 (prostate cancer)): 4.15 µg/mL (≈ 8.74 µM); IC50 [15]: 0.29 µg/mL (≈ 0.611 µM); IC90 [15]: 5.56 µg/mL (≈ 11.7 µM); IC50 [16]: 3.55 µg/mL (≈ 7.48 µM); IC90 [16]: 7.76 µg/mL (≈ 16.4 µM); IC50 [17]: 1.16 µg/mL (≈ 2.44 µM); IC90 [17]: 3.72 µg/mL (≈ 7.84 µM) | Cc1c(CN(C)CCOC(=O)C2CCNCC2)oc2c1C(=O)C(=O)c1c-2ccc2c(C)cccc12 [BS-TA-64]
1.4 | 4 | 1.28 | 3.99 | 1.36 | 5.12 | 1.61 | 3.86 | 0.9 | 2.98 | 2 | 7.64 | 3.78 | 9.78 | 1.88 | 3.67 | 3.2 | 7.2 | 3.58 | 7.74 | IC50 [10]: 3.32 µg/mL; IC90 [10]: 7.35 µg/mL; IC50 [11]: 2.5 µg/mL; IC90 [11]: 5.97 µg/mL; IC50 [12]: 1.79 µg/mL; IC90 [12]: 7.41 µg/mL; IC50 (MG63 (osteosarcoma)): 1.24 µg/mL; IC90 (MG63 (osteosarcoma)): 5.23 µg/mL; IC50 [13]: 2.9 µg/mL; IC90 [13]: 5.4 µg/mL; IC50 [14]: 1.74 µg/mL; IC90 [14]: 3.58 µg/mL; IC50 (PC-3 (prostate cancer)): 5.03 µg/mL; IC90 (PC-3 (prostate cancer)): 10.8 µg/mL; IC50 [15]: 0.52 µg/mL; IC90 [15]: 1.88 µg/mL; IC50 [16]: 9.78 µg/mL; IC90 [16]: 22.7 µg/mL; IC50 [17]: 0.36 µg/mL; IC90 [17]: 18.8 µg/mL | Cc1c(C[N+](C)(CCO)Cc2ccc(F)c(Cl)c2)oc2c1C(=O)C(=O)c1c-2ccc2c(C)cccc12 (centres unmarked) [BS-TA-60]
